Assays:
M.SssI DNMT = target: T1, M.SssI DNMT (Spiroplasma monobiae, UniProt P15840); assay: Compound selectivity, endonuclease-coupled DNA methylation assay; format: biochemical, bacterial; settings: 1.25 h; 20 µM inhibitor, 20 nM methyltransferase, 0.25 mM SAM; read-out: Percent activity, M.SssI DNMT
T1 construct: purchased New England Biolabs
Protocol: After identifying direct inhibitors of DNMT1 lacking the RFTS domain, inhibitor selectivity was assessed by examining inhibition of RFTS-containing DNMT1 (amino acids 351–1616), CD-DNMT3A/DNMT3L complex, and the bacterial cytosine methyltransferase from M. SssI (New England Biolabs) using the endonuclease-coupled DNA methylation assay. Triplicate assays (100 µl) containing 0.25 mM SAM, 0.2 µM oligonucleotide 8006, 0.8 U GlaI, 20 nM methyltransferase, 20 µM inhibitor and 1% DMSO were conducted in 96 well plates. Following enzyme addition, assay plates were incubated at 37°C for 75 min and fluorescence was measured in a BioTek Neo plate reader. A control containing only GlaI was subtracted from each assay. […] Percent activity was determined by comparing product formation to a DMSO containing control assay.

CD-DNMT3A/DNMT3L complex = target: T2, CD-DNMT3A/DNMT3L complex (Homo sapiens, UniProt Q9Y6K1); assay: as above; format: biochemical; settings: 20 µM inhibitor, 20 nM methyltransferase, 0.25 mM SAM
T2 construct: CD-DNMT3A; amino acids 611–912; His tag (N); made in house; host or cells: Rosetta 2(DE3)pLysS (E. coli) for CD-DNMT3A
Protocol: (§1) Triplicate assays (100 µl) containing 0.25 mM SAM, 0.2 µM oligonucleotide 8006, 0.8 U GlaI, 20 nM methyltransferase, 20 µM inhibitor and 1% DMSO were conducted in 96 well plates. Following enzyme addition, assay plates were incubated at 37°C for 75 min and fluorescence was measured in a BioTek Neo plate reader. A control containing only GlaI was subtracted from each assay. […] Percent activity was determined by comparing product formation to a DMSO containing control assay.

[1] = target: T3, RFTS-containing DNMT1 (amino acids 351–1616) (Homo sapiens, UniProt P26358); assay: as above; format: biochemical; settings: 20 µM inhibitor, 20 nM methyltransferase, 0.25 mM SAM
T3 construct: RFTS-containing DNMT1, amino acids 351–1616; made in house
Protocol: as §1

calf thymus DNA = assay: DNA intercalation assay (ethidium bromide displacement); format: binding; settings: 10 µM compound
Protocol: DNA intercalation was assessed by examining the ability of the compounds to displace ethidium bromide from calf thymus DNA (ctDNA; Sigma). Duplicate assays (100 µl) were conducted in black 96 well plates and contained 15 µg/ml ctDNA, 1.5 µM ethidium bromide and 10 µM compound in methylation assay buffer. DMSO was used as a negative control and daunorubicin (Sigma) was used as a positive control. Fluorescence was measured using excitation and emission wavelengths of 320 nm and 600 nm, respectively.

T2 sequence (Q9Y6K1 611-912): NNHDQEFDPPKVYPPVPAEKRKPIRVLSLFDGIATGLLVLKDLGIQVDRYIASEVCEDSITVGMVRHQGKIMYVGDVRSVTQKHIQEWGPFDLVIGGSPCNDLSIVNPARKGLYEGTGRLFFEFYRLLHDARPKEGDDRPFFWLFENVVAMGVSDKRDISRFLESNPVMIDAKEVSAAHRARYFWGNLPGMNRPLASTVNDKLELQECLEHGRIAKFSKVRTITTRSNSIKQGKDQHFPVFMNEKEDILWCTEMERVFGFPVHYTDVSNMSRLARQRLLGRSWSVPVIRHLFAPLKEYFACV
T2 sequence (Q9UJW3 whole entry partner, the tested form may be a part): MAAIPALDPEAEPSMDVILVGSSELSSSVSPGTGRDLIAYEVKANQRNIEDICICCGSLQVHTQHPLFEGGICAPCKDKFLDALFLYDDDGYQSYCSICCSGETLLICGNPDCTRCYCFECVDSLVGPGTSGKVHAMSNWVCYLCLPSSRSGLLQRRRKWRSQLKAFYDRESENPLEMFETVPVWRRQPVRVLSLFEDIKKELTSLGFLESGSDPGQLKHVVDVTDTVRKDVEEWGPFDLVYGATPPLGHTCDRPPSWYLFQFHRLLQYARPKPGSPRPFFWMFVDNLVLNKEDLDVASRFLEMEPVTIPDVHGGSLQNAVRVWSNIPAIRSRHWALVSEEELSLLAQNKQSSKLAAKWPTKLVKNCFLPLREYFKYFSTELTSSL
T3 sequence (P26358 351-1616): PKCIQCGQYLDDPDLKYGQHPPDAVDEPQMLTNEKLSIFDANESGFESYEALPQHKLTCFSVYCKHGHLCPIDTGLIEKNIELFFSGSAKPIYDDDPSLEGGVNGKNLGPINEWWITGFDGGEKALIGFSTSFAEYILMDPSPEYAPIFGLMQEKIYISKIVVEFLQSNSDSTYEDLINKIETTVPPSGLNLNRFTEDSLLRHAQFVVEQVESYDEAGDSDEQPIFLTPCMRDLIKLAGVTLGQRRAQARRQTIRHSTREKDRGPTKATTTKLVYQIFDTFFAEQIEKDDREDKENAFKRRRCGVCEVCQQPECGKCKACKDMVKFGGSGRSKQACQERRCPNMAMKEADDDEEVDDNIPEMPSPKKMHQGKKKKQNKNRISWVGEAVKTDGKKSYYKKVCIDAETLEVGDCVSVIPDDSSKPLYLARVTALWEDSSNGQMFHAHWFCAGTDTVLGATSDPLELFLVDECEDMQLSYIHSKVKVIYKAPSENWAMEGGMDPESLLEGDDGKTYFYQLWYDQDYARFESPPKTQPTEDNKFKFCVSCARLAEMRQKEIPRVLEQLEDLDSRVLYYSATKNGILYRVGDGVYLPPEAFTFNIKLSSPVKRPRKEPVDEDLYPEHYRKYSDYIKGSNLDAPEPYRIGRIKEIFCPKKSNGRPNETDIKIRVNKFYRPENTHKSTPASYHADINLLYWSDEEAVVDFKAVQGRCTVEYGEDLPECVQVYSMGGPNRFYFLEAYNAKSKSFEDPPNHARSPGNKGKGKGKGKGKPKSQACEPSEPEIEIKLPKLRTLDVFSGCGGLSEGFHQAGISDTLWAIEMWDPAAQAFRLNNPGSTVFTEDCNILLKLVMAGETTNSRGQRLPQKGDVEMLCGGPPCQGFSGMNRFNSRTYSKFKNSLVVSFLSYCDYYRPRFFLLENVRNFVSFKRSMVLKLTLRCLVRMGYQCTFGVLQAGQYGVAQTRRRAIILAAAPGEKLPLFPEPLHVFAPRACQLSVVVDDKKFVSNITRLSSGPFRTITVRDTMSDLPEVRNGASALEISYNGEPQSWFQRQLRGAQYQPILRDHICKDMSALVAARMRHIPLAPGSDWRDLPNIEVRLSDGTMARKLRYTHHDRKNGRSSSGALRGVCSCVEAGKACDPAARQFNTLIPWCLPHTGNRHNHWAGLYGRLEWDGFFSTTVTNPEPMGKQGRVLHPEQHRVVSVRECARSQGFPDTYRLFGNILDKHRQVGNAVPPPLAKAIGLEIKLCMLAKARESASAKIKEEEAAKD
T1 sequence (P15840 whole entry): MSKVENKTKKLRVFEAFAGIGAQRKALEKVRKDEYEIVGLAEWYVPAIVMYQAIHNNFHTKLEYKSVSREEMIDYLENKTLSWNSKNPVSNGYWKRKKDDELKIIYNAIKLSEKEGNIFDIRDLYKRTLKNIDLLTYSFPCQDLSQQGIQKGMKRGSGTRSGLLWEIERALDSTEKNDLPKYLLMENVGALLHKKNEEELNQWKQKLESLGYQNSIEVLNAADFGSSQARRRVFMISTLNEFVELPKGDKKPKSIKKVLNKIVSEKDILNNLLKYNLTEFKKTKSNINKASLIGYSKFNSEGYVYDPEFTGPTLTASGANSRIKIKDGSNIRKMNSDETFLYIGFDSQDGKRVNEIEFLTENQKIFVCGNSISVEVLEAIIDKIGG

Row | SMILES | remaining activity at 20 µM (M.SssI DNMT) | Percent activity, DNMT3A/DNMT3L Complex (CD-DNMT3A/DNMT3L complex) | Percent activity, RFTS-containing Dnmt1 [1] | DNA intercalation (in words) (calf thymus DNA) | RFU (ethidium bromide fluorescence) (calf thymus DNA; 15 µg/ml ctDNA, 1.5 µM ethidium bromide, DMSO 2370 ± 190)
1 | Nc1ncn([C@@H]2O[C@H](CO)[C@@H](O)[C@H]2O)c(=O)n1 [5-aza-cytidine, reference compound] | 100 ± 5% | 97±10% | 100±11% |  | 
2 | COc1cccc2c1C(=O)c1c(O)c3c(c(O)c1C2=O)C[C@@](O)(C(C)=O)C[C@@H]3O[C@H]1C[C@H](N)[C@H](O)[C@H](C)O1 [Daunorubicin, daunorubicin, reference compound] |  |  |  | significantly reduced fluorescence | 605 ± 33 RFU
